From US20220144879A1, “FLUORESCENT PROBE FOR DETECTING CANCER” (The University of Tokyo, priority 2019, published 2022) come the findings set out here.

Experiment [1] concerns intact glycosidase activities in normal breast, IDC (breast cancer), and FA (benign tumor) tissues. The experiment in a line: Screening of glycosidase-reactive fluorescent probes for detecting breast cancer and benignancy (fluorescence increase in clinical mammary gland specimens). Further details: species or system human. To be noted: probe 50 μM in PBS, increase from 1 minute to 30 minutes after addition, 540 nm. The procedure:
Using the 12 types of glycosidase-reactive fluorescent probes synthesized above (refer to FIG. 1), screening for the detection of breast cancer and benignancy was performed in the following procedure.
200 μL of a PBS solution of each fluorescent probe at a concentration of 50 μM was added to each well in which a clinical mammary gland specimen was placed, and fluorescence images at 1, 3, 5, 10, 20, and 30 minutes were acquired at 540 nm using a Maestro in vivo imaging system (PerkinElmer Inc.). Each fluorescence intensity value was quantified and compared by taking Regions Of Interest (ROIs) on Maestro software. Ex/Em=465−30 nm/515 nm long-pass was used as the filter setting.
The increase in fluorescence indicates increase after the lapse of 1 minute to 30 minutes since the addition of the fluorescent probe. Each dot represents, from left to right, increase in fluorescence in normal breast, IDC, DCIS, and FA tissues.

Experiment [2] relates to breast cancer and benign tumor tissues (clinical mammary gland specimen). Description: Two-color imaging with HMRef-α-D-Man and GGT probe in combination (FIG. 9). Further details: species or system human. To be noted: 50 μM each probe; 30 minutes after administration of both probes. The protocol:
Two-color imaging was performed under the following conditions using the glycosidase-reactive fluorescent probe 5 (HMRef-α-D-Man) (concentration: 50 μM) and a GGT probe gGlu-2-OMeSiR600 (concentration: 50 μM) in combination.
200 μL of a PBS solution of the fluorescent probes at the above concentrations was added to each well in which a clinical mammary gland specimen was placed, and fluorescence images at 1, 3, 5, 10, 20, and 30 minutes were acquired at 540 nm and 640 nm using the Maestro in vivo imaging system (PerkinElmer Inc.). Each fluorescence intensity value was quantified and compared by taking Regions Of Interest (ROIs) on Maestro software. For the glycosidase-reactive fluorescent probe 5, Ex/Em=465-30 nm/515 nm long-pass was used as the filter setting. For the GGT probe, Ex/Em=570-40 nm/610 nm long-pass was used.
The exposure time (in milliseconds) of the fluorescence image is indicated at the bottom of each image.

Turning to `COc1ccccc1C1=C2C=CC(=N)C=C2[Si](C)(C)c2cc(NC(=O)CC[C@H](N)C(=O)O)ccc21` [compound 7], in experiment [1], the increase in fluorescence result is “increase in fluorescence in both the breast cancer and FA (benign tumor) tissues”.

As to `COc1ccccc1C1=C2C=CC(=N)C=C2[Si](C)(C)c2cc(NC(=O)CC[C@H](N)C(=O)O)ccc21` [gGlu-2OME-SiR600, gGlu-2-OMeSiR600], the “red fluorescence (640 nm)” value in experiment [2] was “emitted red fluorescence in both breast cancer (malignant tumor) and the benign tumor”.
